Experimental data published in publication PMC13195669, “GPR3 Ligands Discovered through Combined Virtual and Conformational Biosensor-Based Screening” (Journal of the American Chemical Society, 2026).

Tests used:
Assay type in all cases: cell-based
GPR3 = biological target: T1, GPR3 (Homo sapiens, UniProt P46089); test: cAMP GloSensor 22F, GPR3-transfected HEK293A cells; settings: read-out: EC50 of cAMP decrease in GPR3-expressing cells
T1 construct: host or cells: HEK293A, transient
From the text: (§1) Next, we used the classical cAMP GloSensor technology to assess the target selectivity profile of 33. […] In addition, we tested the effects of 33 on cAMP changes mediated by agonist-stimulated GPCRs phylogenetically close to GPR3 and coupling to Gs or Gi/o proteins. […]
(§2) conditioning and no constraints were applied. The poses were visually inspected and the most favorable one that coincides with the co-solved ligand according to the available structures was chosen.
(§3) Plasmids and molecular cloning
(§4) The H187-EPAC-FRET sensor7 was kindly provided by K. Jalink (The Netherlands Cancer Institute, Amsterdam, The Nether-lands). The BRET-based cAMP sensor CAMYEL8 was kindly provided by Laura Humphrys (University of Regensburg, Regens-burg, Germany). Plasmids encoding the conformational biosensors α2AAR- and β2AR-HaloTag/Nluc9 and the Gs heterotrimer dissociation sensor10 were previously described. The expression plasmid encoding N-terminally HA-tagged GPR3 (cat. no.
(§5) #GPR003TN00) on a pcDNA3.1+ vector was obtained from the cDNA resource center (cdna.org). The Nluc and HaloTag in-serts were amplified with overhanging restriction sites from β2AAR- HaloTag/Nluc and ligated to the full-length C-terminus or inserted into icl3 of GPR3, respectively, to obtain the conformational biosensor GPR3-HaloTag/Nluc. […]

GPR6 = biological target: T2, GPR6 (Homo sapiens, UniProt P46095); test: cAMP GloSensor 22F, GPR6-transfected HEK293A cells
T2 construct: expressed in transfected cells; host or cells: HEK293A, transient
T2 sequence (P46095 whole entry, species assumed): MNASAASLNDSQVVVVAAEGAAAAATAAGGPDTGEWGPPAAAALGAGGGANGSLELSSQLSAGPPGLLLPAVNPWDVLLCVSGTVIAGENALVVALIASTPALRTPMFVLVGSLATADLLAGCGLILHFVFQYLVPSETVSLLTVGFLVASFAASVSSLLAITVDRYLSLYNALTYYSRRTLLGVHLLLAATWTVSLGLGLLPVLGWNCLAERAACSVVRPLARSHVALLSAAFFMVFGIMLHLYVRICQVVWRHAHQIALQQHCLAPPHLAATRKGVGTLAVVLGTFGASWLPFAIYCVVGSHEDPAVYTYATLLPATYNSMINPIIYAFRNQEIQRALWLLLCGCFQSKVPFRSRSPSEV
From the text: as §1, §2, §3, §4, §5

GPR12 = biological target: T3, GPR12 (Homo sapiens, UniProt P47775); test: cAMP GloSensor 22F, GPR12-transfected HEK293A cells
T3 construct: expressed in transfected cells; host or cells: HEK293A, transient
T3 sequence (P47775 1-334): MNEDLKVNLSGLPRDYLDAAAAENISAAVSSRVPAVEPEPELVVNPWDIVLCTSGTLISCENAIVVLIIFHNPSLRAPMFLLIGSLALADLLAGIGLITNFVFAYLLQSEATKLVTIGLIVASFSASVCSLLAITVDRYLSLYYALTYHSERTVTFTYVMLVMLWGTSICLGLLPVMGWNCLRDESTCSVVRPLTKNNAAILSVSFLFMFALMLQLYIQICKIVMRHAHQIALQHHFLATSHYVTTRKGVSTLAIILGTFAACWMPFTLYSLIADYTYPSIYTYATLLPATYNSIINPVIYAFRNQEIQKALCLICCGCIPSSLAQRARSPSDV
From the text: as §1, §2, §3, §4, §5

T1 sequence (P46089 whole entry): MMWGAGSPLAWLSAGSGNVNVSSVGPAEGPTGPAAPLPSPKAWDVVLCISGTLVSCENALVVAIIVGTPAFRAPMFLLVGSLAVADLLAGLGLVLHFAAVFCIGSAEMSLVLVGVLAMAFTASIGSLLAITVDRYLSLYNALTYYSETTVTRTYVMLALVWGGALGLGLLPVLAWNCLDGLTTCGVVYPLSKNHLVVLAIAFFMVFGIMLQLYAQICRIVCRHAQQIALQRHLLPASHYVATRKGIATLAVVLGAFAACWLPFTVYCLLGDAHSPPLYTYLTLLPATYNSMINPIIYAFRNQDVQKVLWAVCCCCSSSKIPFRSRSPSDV

N=c1n(Cc2ccccc2)c2ccccc2n1CC1CC1 [compound 33]
EC50 (GPR3): 2000 nM | receptor-specific change in cAMP, GPR6 (GPR6): no receptor-specific changes in cAMP levels below 100 μM | receptor-specific change in cAMP, GPR12 (GPR12): no receptor-specific changes in cAMP levels below 100 μM
